Patent publication US9260400B2, “I-arylpiperazinic ligands of 5-HT7 receptor and use thereof” (UNIVERSITA' DEGLI STUDI DI BARI “ALDO MORO”, priority 2011, dated 2016)

How the values were obtained:
[1] = target: T1, human cloned 5-HT7 receptor (Homo sapiens, UniProt P34969); experiment: Radioligand binding assay at human cloned 5-HT7 receptors ([3H]-5-CT competition); settings: read-out: 5-HT7 (pKi) (converted)
T1 construct: expressed in transfected cells
Procedure: Radioligand Binding Assay At Human Cloned 5-HT7 Receptors
Functionality assays on the 5-HT7 receptor were done according to Jasper et al [Br. J. Pharmacol. 1997, 122, 126.] with minor modifications. The test is a competition assay based on binding of [^3H]-5-CT at human cloned 5-HT7 receptor. In 0.5 mL of incubation buffer (50 mM Tris-HCl, 10 mM MgSO4 and 0.5 mM EDTA, pH 7.4) were suspended 34 μg of membranes, 1.5 nM [^3H]-5-CT, the drugs or reference compound (six to nine concentrations). The samples were incubated for 120 min at 27° C. The incubation was stopped by rapid filtration on Whatman GF/C glass microfiber filters (pre-soaked in 0.3% polyethylenimine for 30 min). The filters were washed with 3×1 mL of ice-cold buffer (50 mM Tris-HCl, pH 7.4). Nonspecific binding was determined in the presence of 10 μM 5-CT. Approximately 90% of specific binding was determined under these conditions.
(§1) Competition binding data were analyzed using the GraphPad Prism Software (GraphPad Software, Inc., San Diego, Calif., USA). The value for the inhibition constant, Ki, was calculated by using the Cheng-Prusoff equation [Anal. Biochem. 1980, 107, 200-239].

[2] = target: T2, Human 5-HT1A serotonin receptors (Homo sapiens, UniProt P08908); experiment: Radioligand binding assay at human cloned 5-HT1A receptor ([3H]-8-OH-DPAT); settings: compound at 10−7M
T2 construct: expressed in transfected cells; host or cells: HEK293-EBNA
T2 sequence (P08908 1-422): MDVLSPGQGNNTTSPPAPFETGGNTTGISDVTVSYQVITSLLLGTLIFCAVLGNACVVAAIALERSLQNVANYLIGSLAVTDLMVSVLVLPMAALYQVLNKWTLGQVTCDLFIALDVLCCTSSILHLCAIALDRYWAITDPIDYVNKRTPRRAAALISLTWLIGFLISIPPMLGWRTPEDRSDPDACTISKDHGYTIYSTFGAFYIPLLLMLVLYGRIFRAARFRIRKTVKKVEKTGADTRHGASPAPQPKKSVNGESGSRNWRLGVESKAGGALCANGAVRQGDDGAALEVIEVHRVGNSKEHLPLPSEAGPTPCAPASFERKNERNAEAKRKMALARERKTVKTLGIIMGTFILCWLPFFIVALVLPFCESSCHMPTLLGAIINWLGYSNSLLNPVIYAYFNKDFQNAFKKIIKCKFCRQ
Procedure: Radioligand Binding Assay At Human Cloned 5-HT1A Receptor
Human 5-HT1A serotonin receptors stably expressed in HEK293-EBNA cells were radiolabeled with 1.0 nM [^3H]-8-OH-DPAT [J. Biol. Chem. 1989, 264, 14848]. Samples containing 32 μg of membrane protein, different concentrations of each compound ranging from 0.1 nM to 10 μM were incubated in a final volume of 500 μL of 50 mM Tris-HCl pH 7.4, 5 mM MgSO4 for 120 min at […]. After this incubation time, samples were filtered through Whatman GF/C glass microfiber filters pre-soaked in polyethylenimine 0.5% for at least 30 min prior to use. The filters were washed twice with 1 ml of ice-cold buffer (50 mM Tris-HCl, pH 7.4). Nonspecific binding was determined in the presence of 10 μM 5-HT.
as §1

[3] = In vitro metabolic stability using liver S9 fractions; type: in vitro ADME; settings: 10 μM compound, 1 mg/ml rat liver S9, 30 min at 37° C.
Procedure: Determination of in vitro Metabolic Stability Using Liver S9 Fractions
Tested compounds (10 μM) were incubated with rat liver S9 fractions (1 mg/ml), liver S9 fractions are subcellular fractions that contain drug-metabolizing enzymes such as cytochromes P450, flavin monooxygenases, and UDP glucuronyl transferases.
The incubation was performed in 100 mM phosphate buffer (pH 7.4) containing 1.3 mM of NADP+, 3.3 mM glucose 6-phosphate and 0.4 U/ml glucose 6-phosphate dehydrogenase, 3.3 mM MgCl2 in a total volume of 1 mL. Incubations were commenced with the addition of glucose 6-phosphate dehygrogenase and carried out for 30 min. at 37° C. The reaction was stopped by adding 1 mL of cooled acetonitrile. The samples were centrifuged at 4600 rpm for 10 min at 4° C. The supernatant was separated and the acetonitrile phase was analyzed by using a reversed-phase HPLC equipped with a Perkin-Elmer series 200 LC pump and a Perkin-Elmer 785A UV/VIS detector. UV signals were monitored and obtained peaks integrated using a personal computer running Perkin-Elmer Turbochrom Software. The column used was a Phenomenex Gemini C-18 (250×4.6 mm, 5 μm particle size). The samples were eluted with ammonium formate (20 mM; pH 6.7) and acetonitrile 80:20 v/v at a flow rate of 1 mL/min and at the appropriate UV wavelength. The sample injection volume was 20 μL.
This assay provides information on the xenobiotic metabolism of the tested compounds; the results obtained are reported in table 1.

[4] = after 20 minutes following i.p injection; cited from earlier work

T1 sequence (P34969 whole entry): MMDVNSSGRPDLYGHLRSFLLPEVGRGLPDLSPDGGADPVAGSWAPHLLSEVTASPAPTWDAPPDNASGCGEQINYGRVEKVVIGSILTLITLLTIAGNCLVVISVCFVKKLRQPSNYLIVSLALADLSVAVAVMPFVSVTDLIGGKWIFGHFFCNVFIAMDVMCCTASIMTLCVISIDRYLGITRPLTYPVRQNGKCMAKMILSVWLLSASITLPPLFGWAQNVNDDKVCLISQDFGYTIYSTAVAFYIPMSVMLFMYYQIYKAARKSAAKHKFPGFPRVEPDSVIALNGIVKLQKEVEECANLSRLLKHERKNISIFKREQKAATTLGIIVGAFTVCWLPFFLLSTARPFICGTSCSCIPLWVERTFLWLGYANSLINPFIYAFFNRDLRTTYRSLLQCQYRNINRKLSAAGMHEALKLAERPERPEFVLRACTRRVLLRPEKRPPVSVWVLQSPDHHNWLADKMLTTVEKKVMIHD

| SMILES | Ki [1] [nM] | 5-HT1A (% displacement of radioligand at 10−7M conc.) [2] [%] | % parent compound after incubation with rat liver S9 fractions [3] [%] | plasma and brain concentration [4] |
| --- | --- | --- | --- | --- |
| COc1ccc(OCC(O)CN2CCN(c3ccccc3-c3ccccc3)CC2)cc1 (stereo not shown) [Example 1, 1-(4-Methoxyphenoxy)-3-[4-(2-biphenyl)piperazin-1-yl] propan-2-ol] | 16.6 | 46 | 35 |  |
| COc1ccc(OCC(O)CN2CCN(c3ncccc3-c3ccncc3)CC2)cc1 (stereo not shown) [Example 5, 1-(4-Methoxyphenoxy)-3-[4-[3-(4-pyridyl)-2-pyridyl]piperazin-1-yl]propan-2-ol] | 7.59 | 26 | 82 |  |
| COc1cccc(C(F)CN2CCN(c3ncccc3-c3ccccn3)CC2)c1 (stereo not shown) [Example 12, 1-[2-Fluoro-2-(3-methoxyphenyl)ethyl]-4-[3-(2-pyridyl)-2-pyridyl)piperazine] | 6.92 | 25 | 84 |  |
| COc1cccc(OCCN2CCN(c3ncccc3-c3ccccn3)CC2)c1 [Example 15, 1-[2-(3-Methoxyphenoxy)ethyl]4-[3-(2-pyridyl)-2-pyridyl]piperazine] | 5.37 | 35 | 78 |  |
| CSc1ccccc1N1CCN(CCCCCC(=O)NC2CCCc3ccccc32)CC1 (stereo not shown) [LP-44] |  |  |  | undetectable |

Continued, in another order:

| Ki [1] [nM] | 5-HT1A (% displacement of radioligand at 10−7M conc.) [2] [%] | % parent compound after incubation with rat liver S9 fractions [3] [%] | SMILES | plasma and brain concentration [4] |
| --- | --- | --- | --- | --- |
| 20 | 20 | 68 | FCCOc1ccc(OCCN2CCN(c3ncccc3-c3ccccn3)CC2)cc1 [Example 18, 1-[2-[4-(2-Fluoroethoxy)phenoxy]ethyl]-4-[3-(2-pyridyl)-2-pyridyl]piperazine] |  |
| 1.62 | 37 | 55 | COc1ccc(-c2ccccc2N2CCN(CCCCCC(=O)NCc3ccccn3)CC2)cc1 [Example 21, 4-[2-(4-Methoxyphenyl)phenyl]-N-(2-pyridinylmethyl)-1-piperazinehexanamide] |  |
| 5.75 | 31 | 80 | COc1ccc(CNC(=O)CCCCCN2CCN(c3ncccc3-c3ccccn3)CC2)cc1 [Example 24, N-[(4-Methoxyphenyl)methyl]-6-[4-[3-(2-pyridyl)-2-pyridyl]piperazin-1-yl]hexanamide] |  |
